Test results published in ChEMBL document CHEMBL5608191, “Structure-based discovery of novel piperidine-biphenyl-DAPY derivatives as non-nucleoside reverse transcriptase inhibitors featuring improved potency, safety, and selectivity: From piperazine-biphenyl-DAPYs to piperidine-biphenyl-DAPYs” (Eur J Med Chem, 2024).

Columns and labels:
[1] = Selectivity index, ratio of CC50 for human MT4 cells to EC50 for wild-type HIV-1 IIIB infected in human MT4 cells; type: toxicity, cell-based; conditions: read-out: Ratio CC50/EC50
[2] = Cytotoxicity against human MT4 cells assessed as reduction in cell viability incubated for 5 days by MTT assay; type: toxicity, cell-based; conditions: time 5 day
[3] = tested on: Human immunodeficiency virus 1; test: Antiviral activity against wild-type HIV-1 IIIB infected in human MT4 cells assessed as protection against virus-induced cytopathic effect incubated for 5 days by MTT assay; type: functional, organism-based; conditions: Human immunodeficiency virus 1, IIIB, MT4, 120 h
[4] = target: Human immunodeficiency virus type 1 reverse transcriptase (Human immunodeficiency virus 1, UniProt Q72547); test: Inhibition of recombinant wild-type HIV-1 reverse transcriptase incubated for 40 mins by fluorescence based assay
[5] = tested on: Human immunodeficiency virus 1; test: Antiviral activity against HIV-1 harboring RT K103N mutant infected in human MT4 cells assessed as protection against virus-induced cytopathic effect incubated for 5 days by MTT assay; type: functional, organism-based; conditions: Human immunodeficiency virus 1, MT4, 120 h
[6] = tested on: Human immunodeficiency virus 1; test: Antiviral activity against HIV-1 harboring RT L100I mutant infected in human MT4 cells assessed as protection against virus-induced cytopathic effect incubated for 5 days by MTT assay; type: functional, organism-based; conditions: Human immunodeficiency virus 1, MT4, 120 h
[7] = tested on: Human immunodeficiency virus 1; test: Antiviral activity against HIV-1 harboring RT Y188L mutant infected in human MT4 cells assessed as protection against virus-induced cytopathic effect incubated for 5 days by MTT assay; type: functional, organism-based; conditions: Human immunodeficiency virus 1, MT4, 120 h
[8] = tested on: Human immunodeficiency virus 1; test: Antiviral activity against HIV-1 harboring RT E138K mutant infected in human MT4 cells assessed as protection against virus-induced cytopathic effect incubated for 5 days by MTT assay; type: functional, organism-based; conditions: Human immunodeficiency virus 1, MT4, 120 h
[9] = tested on: Human immunodeficiency virus 1; test: Antiviral activity against HIV-1 harboring RT Y181C mutant infected in human MT4 cells assessed as protection against virus-induced cytopathic effect incubated for 5 days by MTT assay; type: functional, organism-based; conditions: Human immunodeficiency virus 1, MT4, 120 h

Structure (SMILES) | selectivity ratio [1] | CC50 at 120 h [2] [nM] | EC50 [3] [nM] | IC50 [4] [nM] | EC50 [5] [nM] | EC50 [6] [nM] | EC50 [7] [nM] | EC50 [8] [nM] | EC50 [9] [nM]
CCOC(=O)c1cnc(N2CCN(Cc3cccc(C(N)=O)c3)CC2)nc1Oc1c(C)cc(-c2ccc(C#N)cc2)cc1C | 4 | 14800 | 3360 | – | – | – | – | – | –
CCOC(=O)c1cnc(NC2CCN(Cc3ccc(OC(F)(F)F)cc3)CC2)nc1Oc1c(C)cc(-c2ccc(C#N)cc2)cc1C | 923 | 175000 | 189 | 2040 | – | – | – | – | –
CCOC(=O)c1cnc(NC2CCN(Cc3ccncc3)CC2)nc1Oc1c(C)cc(-c2ccc(C#N)cc2)cc1C | 3720 | 60000 | 16 | 527 | 13 | 73 | 87 | 73 | 66
CCOC(=O)c1cnc(NC2CCN(Cc3ccc(S(=O)(=O)NC)cc3)CC2)nc1Oc1c(C)cc(-c2ccc(C#N)cc2)cc1C | 460 | 10900 | 24 | 744 | 26 | 35 | 177 | 38 | 72
CCOC(=O)c1cnc(NC2CCN(Cc3ccccc3C#N)CC2)nc1Oc1c(C)cc(-c2ccc(C#N)cc2)cc1C | 3940 | 196000 | 50 | 327 | – | – | – | – | –
CCOC(=O)c1cnc(NC2CCN(Cc3ccc(CO)cc3)CC2)nc1Oc1c(C)cc(-c2ccc(C#N)cc2)cc1C | 4740 | 192000 | 40 | 514 | – | – | – | – | –
CCOC(=O)c1cnc(NC2CCN(Cc3ccc(F)cc3F)CC2)nc1Oc1c(C)cc(-c2ccc(C#N)cc2)cc1C | 3280 | 176000 | 54 | 634 | – | – | – | – | –
CCOC(=O)c1cnc(NC2CCN(Cc3ccc(OC)cc3)CC2)nc1Oc1c(C)cc(-c2ccc(C#N)cc2)cc1C | 3740 | 125000 | 33 | 622 | – | – | – | – | –
CCOC(=O)c1cnc(NC2CCN(Cc3ccc(C)cc3)CC2)nc1Oc1c(C)cc(-c2ccc(C#N)cc2)cc1C | 5080 | 178000 | 35 | 890 | – | – | – | – | –
CCOC(=O)c1cnc(NC2CCN(Cc3ccc(F)c(F)c3)CC2)nc1Oc1c(C)cc(-c2ccc(C#N)cc2)cc1C | 967 | 194000 | 201 | 522 | – | – | – | – | –
O=C1Nc2ccc(Cl)cc2[C@@](C#CC2CC2)(C(F)(F)F)O1 [EFAVIRENZ] | – | > 6350 | – | – | 77 | 39 | – | 8 | 8
CCOC(=O)c1cnc(NC2CCN(Cc3ccc(C(F)(F)F)cc3)CC2)nc1Oc1c(C)cc(-c2ccc(C#N)cc2)cc1C | > 472 | > 199000 | 421 | 990 | – | – | – | – | –
CCOC(=O)c1cnc(NC2CCN(Cc3ccc(S(N)(=O)=O)cc3)CC2)nc1Oc1c(C)cc(-c2ccc(C#N)cc2)cc1C | > 5640 | > 195000 | 35 | 736 | 46 | 212 | 538 | 83 | 202
CCOC(=O)c1cnc(NC2CCN(Cc3ccc([N+](=O)[O-])cc3)CC2)nc1Oc1c(C)cc(-c2ccc(C#N)cc2)cc1C | 4390 | 164000 | 37 | 410 | – | – | – | – | –
CCOC(=O)c1cnc(NC2CCN(Cc3ccccn3)CC2)nc1Oc1c(C)cc(-c2ccc(C#N)cc2)cc1C | > 12200 | > 222000 | 18 | 676 | 43 | 128 | 313 | 164 | 118
CCOC(=O)c1cnc(NC2CCN(Cc3ccc(S(C)(=O)=O)cc3)CC2)nc1Oc1c(C)cc(-c2ccc(C#N)cc2)cc1C | 2290 | 27900 | 13 | 598 | 13 | 57 | 67 | 105 | 51
CCOC(=O)c1cnc(NC2CCN(Cc3ccc(C(N)=O)cc3)CC2)nc1Oc1c(C)cc(-c2ccc(C#N)cc2)cc1C | 17400 | 191000 | 11 | 596 | 17 | 45 | 94 | 50 | 48
CCOC(=O)c1cnc(NC2CCN(Cc3cccc(C(=O)NC)c3)CC2)nc1Oc1c(C)cc(-c2ccc(C#N)cc2)cc1C | 556 | 20400 | 37 | 686 | 48 | 74 | 246 | 51 | 67
CCOC(=O)c1cnc(NC2CCN(Cc3cccc(C#N)c3)CC2)nc1Oc1c(C)cc(-c2ccc(C#N)cc2)cc1C | 4960 | 178000 | 36 | 530 | 65 | 342 | 389 | 81 | 134
CCOC(=O)c1cnc(NC2CCN(Cc3ccc(Cl)cc3)CC2)nc1Oc1c(C)cc(-c2ccc(C#N)cc2)cc1C | 728 | 141000 | 194 | 314 | – | – | – | – | –
CCOC(=O)c1cnc(NC2CCN(Cc3ccc(F)cc3)CC2)nc1Oc1c(C)cc(-c2ccc(C#N)cc2)cc1C | 4180 | 185000 | 44 | 582 | 115 | 257 | 790 | 154 | 158
CCOC(=O)c1cnc(NC2CCN(Cc3ccccc3F)CC2)nc1Oc1c(C)cc(-c2ccc(C#N)cc2)cc1C | 4040 | 189000 | 47 | 769 | – | – | – | – | –
Cc1ccnc2c1NC(=O)c1cccnc1N2C1CC1 [NEVIRAPINE] | – | > 15000 | – | – | – | 2000 | > 10000 | 153 | –
CCOC(=O)c1cnc(NC2CCN(Cc3ccc(C#N)cc3)CC2)nc1Oc1c(C)cc(-c2ccc(C#N)cc2)cc1C | 604 | 131000 | 217 | 782 | – | – | – | – | –
CCOC(=O)c1cnc(NC2CCN(Cc3ccc(/C=C/C(=O)OC)cc3)CC2)nc1Oc1c(C)cc(-c2ccc(C#N)cc2)cc1C | > 2450 | > 194000 | 79 | 535 | – | – | – | – | –
CCOC(=O)c1cnc(NC2CCN(Cc3ccc(B(O)O)cc3)CC2)nc1Oc1c(C)cc(-c2ccc(C#N)cc2)cc1C | 439 | 20900 | 48 | 1300 | – | – | – | – | –
Cc1cn([C@H]2C[C@H](N=[N+]=[N-])[C@@H](CO)O2)c(=O)[nH]c1=O [ZIDOVUDINE] | > 223 | > 7490 | 34 | – | 20 | 8 | 16 | 39 | 21
